Reference: article PMC4055159, “Application of Molecular Modeling to Urokinase Inhibitors Development” (BioMed Research International, 2014)

Biological target: uPA
Assay: not given
Parameters: method as in PMID 8495419
Conditions: cited from earlier work

SMILES | Ki [µM]
N=C(N)c1cc2c(I)cccc2s1 [B428] | 0.53

Test system: not given
Assay: not given
Parameters: method as in PMID 19200050
Conditions: cited from earlier work

SMILES | oral absorption
CCOC(=O)N1CCN(C(=O)C(Cc2cccc(C(=N)N)c2)NS(=O)(=O)c2c(C(C)C)cc(C(C)C)cc2C(C)C)CC1 (centres unmarked) [WX-UK1] | not absorbed orally

Biological target: urokinase (uPA) (Homo sapiens, UniProt P00749)
Assay: urokinase inhibition testing in vitro, chromogenic substrate S-2444, optical density at 405 nm
Type: biochemical
Conditions: ordered compounds, Table 7; read-out: Experiment, uPA inhibition activity (IC50)
Protocol: After selection of the most promising candidates for new urokinase inhibitors, we tested their inhibition activities in vitro. The experiments were carried out on the system with the urokinase specimen, the tested ligand, and the special substrate—a synthetic Pyro-Glu-Gly-Arg-pNA peptide (S-2444). Urokinase decomposes the substrate with production of the chromogenic product. When the inhibitor binds to the urokinase active site, this production is slowed down. The higher the inhibition activity of the ligand, the slower the working of urokinase and the slower the accumulation of chromogenic product. Thus, the inhibitory activity can be measured by the rate of optical density change at the 405 nm wavelength. […] Error of the method for IC50 measurement in micromole range is about […].
Experimental tests were performed as indicated in paragraph 3.5 of “Methods.” Urokinase proteolytic activity in the presence of inhibitor (and also in absence of inhibitor, labeled “control” in Figure 4) was determined by releasing the paranitroanilide by means of measuring of absorption with a wave length of 405 nm each minute at 30°C. Figure 4 is a diagram of relationship between optical density and time. The angle of curve describes the reaction rate: the lower it is (compared with “control”, which corresponds to urokinase without inhibitors), the better inhibitor works.

IC50 [µM] | SMILES
260 | Cc1[nH]c2ccc(Oc3ccccc3)cc2c1CCN [TRY-0074]

Same assay, conditions: ordered compounds, Table S2; read-out: Experiment, uPA inhibition activity (IC50)

IC50 [µM] | SMILES
500 | Nc1ncc(-c2ccc(F)cc2)[nH]1 [AIM-0027]

Same assay, conditions: synthesized compounds, Table 8; read-out: Experiment, uPA inhibition activity (IC50)

SMILES | IC50 [µM]
N=C(N)Sc1ccccn1 [U001R] | > 500
N=C(N)Sc1ccccc1 [U002R] | > 500
Nc1cc2ccccc2cn1 [U003P] | > 500
Nc1nc(-c2ccccc2)c[nH]1 [U005r] | 500
NC1=NCC(COc2ccccc2)O1 (centres unmarked) [U006R] | > 500
N=C(N)Sc1ccc(Br)cn1 [U007R] | > 500
Nc1nc(-c2ccc3ccccc3c2)cs1 [U009T] | > 500
NC1=NCC(COc2c(Cl)cccc2Cl)O1 (centres unmarked) [U012T] | > 500
Cc1cccc(C)c1OCC1CN=C(N)O1 (centres unmarked) [U013T] | > 500
N=C(N)Nc1nsc2ccccc12 [U024R, 1,2-benzisothiazol-3-yl-guanidine] | 33
N=C(N)Nc1nsc2ccc(Br)cc12 [U026R, (5-bromo-1,2-benzisothiazol-3-yl) guanidine] | 4 to 20

Continued, values first:

IC50 [µM] | SMILES
200 | Nc1ccc2[nH]c(N)nc2c1 [U014R]
> 500 | Nc1nc2cc([N+](=O)[O-])ccc2[nH]1 [U014aR]
> 500 | Nc1nc2cc(NS(=O)(=O)c3ccccc3)ccc2[nH]1 [U015R]
200 | CC(=O)Nc1ccc2[nH]c(N)nc2c1 [U017R]
500 | COc1ccc2nc(N)[nH]c2c1 [U019R]
500 | Nc1nc2cc(F)ccc2[nH]1 [U020R]
500 | N=C(N)Nc1n[nH]c2ccccc12 [U021R]

Biological target: human uPA
Assay: not given
Parameters: method as in PMID 15582418, PMID 12113833, PMID 11755349, PMID 15149680, PMID 17447747
Conditions: read-out: K i against human uPA; cited from earlier work

SMILES | Ki [µM]
CCOC(=O)N1CCN(C(=O)C(Cc2cccc(C(=N)N)c2)NS(=O)(=O)c2c(C(C)C)cc(C(C)C)cc2C(C)C)CC1 (centres unmarked) [WX-UK1] | 0.6
